Numbers after ± are expanded uncertainties.
How the values were obtained:
[1] = xn = mol fraction of the nth substance listed; details: 332.7 K, 101 kPa, Liquid
[2] = 332.7 K; 101 kPa; Liquid

SMILES: CCOC(C)=O [ethyl acetate] + CC(C)CCO
- mass density ([1]; x1 = 1): 851.36 ± 0.28 kg/m3

SMILES: CCOC(C)=O [ethyl acetate]
- mass density [2]: 851.36 ± 0.28 kg/m3

SMILES: CC(C)CCO [3-methylbutan-1-ol] + CCOC(C)=O
- mass density ([1]; x2 = 0): 778.14 ± 0.37 kg/m3
- mass density ([1]; x2 = 0.0501): 780.94 ± 0.36 kg/m3
- mass density ([1]; x2 = 0.1087): 784.25 ± 0.36 kg/m3
- mass density ([1]; x2 = 0.1714): 788.1 ± 0.36 kg/m3
- mass density ([1]; x2 = 0.2296): 791.81 ± 0.35 kg/m3
- mass density ([1]; x2 = 0.29): 795.6 ± 0.35 kg/m3
- mass density ([1]; x2 = 0.3561): 799.89 ± 0.34 kg/m3
- mass density ([1]; x2 = 0.4088): 803.56 ± 0.34 kg/m3
- mass density ([1]; x2 = 0.4659): 807.59 ± 0.34 kg/m3
- mass density ([1]; x2 = 0.5339): 812.5 ± 0.33 kg/m3
- mass density ([1]; x2 = 0.5891): 816.6 ± 0.33 kg/m3
- mass density ([1]; x2 = 0.6597): 821.96 ± 0.32 kg/m3
- mass density ([1]; x2 = 0.7088): 825.91 ± 0.31 kg/m3
- mass density ([1]; x2 = 0.7693): 830.72 ± 0.31 kg/m3
- mass density ([1]; x2 = 0.8286): 835.79 ± 0.3 kg/m3
- mass density ([1]; x2 = 0.8882): 840.96 ± 0.3 kg/m3
- mass density ([1]; x2 = 0.9488): 846.43 ± 0.29 kg/m3

SMILES: CC(C)CCO [3-methylbutan-1-ol]
- mass density [2]: 778.14 ± 0.37 kg/m3

Source: the NIST ThermoML archive (doi:10.1016/j.fluid.2008.03.002)
